# Patent publication US20240199654A1, “CTLA-4 SMALL MOLECULE DEGRADATION AGENT AND APPLICATION THEREOF” (SUZHOU GUOKUANG PHARMTECH. CO., LTD., priority 2021, published 2024)
# Target: T1, LRBA and CTLA-4 reporting system (Homo sapiens, UniProt P16410+P50851)
# T1 construct: expressed in transfected cells; host or cells: HEK293
# Experiment: LRBA/CTLA-4 protein-protein interaction reporting system, dual luciferase assay in HEK293 cells
# Format: cell-based
# Conditions: HEK293 cells co-transfected with LRBA and CTLA-4 reporting system, 24 h after dosing; read-out: In vitro activity (IC50: concentration of compounds that inhibit 50% of reporting system activity)
# Description: HEK293 cells were spread on 96-well plates, and LRBA and CTLA-4 reporting system were co-transfected into HEK293 cells after 24 h. After 24 h, different compounds with final concentrations of 0.01, 0.033, 0.10, 0.33, 1.00, 3.33, 10.00, 33.33, and 100.00 μM were added. 24 h after dosing, the cell culture medium was removed and the cells were washed with cold PBS. Then the activity of the compounds were detected by the dual luciferase assay kit, and IC50 values were calculated according to the results.
# For the compounds with strong activity (IC50<200 nM), the degradation of CTLA-4 protein was further detected by Western Blot. • IC50: Concentration of compounds that inhibit 50% of reporting system activity The size of IC50 is divided into four levels: • ++++, IC50<200 nM; +++, IC50 is 200-1000 nM; ++, IC50 is 1000-2000 nM; +, IC50>2000 nM.
# T1 sequence (P16410 36-223): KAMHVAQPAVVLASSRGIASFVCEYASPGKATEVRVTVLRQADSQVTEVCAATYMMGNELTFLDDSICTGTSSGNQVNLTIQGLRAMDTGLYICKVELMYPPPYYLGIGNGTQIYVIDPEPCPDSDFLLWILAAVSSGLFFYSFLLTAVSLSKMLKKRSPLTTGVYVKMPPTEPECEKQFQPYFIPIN
# T1 sequence (P50851 whole entry): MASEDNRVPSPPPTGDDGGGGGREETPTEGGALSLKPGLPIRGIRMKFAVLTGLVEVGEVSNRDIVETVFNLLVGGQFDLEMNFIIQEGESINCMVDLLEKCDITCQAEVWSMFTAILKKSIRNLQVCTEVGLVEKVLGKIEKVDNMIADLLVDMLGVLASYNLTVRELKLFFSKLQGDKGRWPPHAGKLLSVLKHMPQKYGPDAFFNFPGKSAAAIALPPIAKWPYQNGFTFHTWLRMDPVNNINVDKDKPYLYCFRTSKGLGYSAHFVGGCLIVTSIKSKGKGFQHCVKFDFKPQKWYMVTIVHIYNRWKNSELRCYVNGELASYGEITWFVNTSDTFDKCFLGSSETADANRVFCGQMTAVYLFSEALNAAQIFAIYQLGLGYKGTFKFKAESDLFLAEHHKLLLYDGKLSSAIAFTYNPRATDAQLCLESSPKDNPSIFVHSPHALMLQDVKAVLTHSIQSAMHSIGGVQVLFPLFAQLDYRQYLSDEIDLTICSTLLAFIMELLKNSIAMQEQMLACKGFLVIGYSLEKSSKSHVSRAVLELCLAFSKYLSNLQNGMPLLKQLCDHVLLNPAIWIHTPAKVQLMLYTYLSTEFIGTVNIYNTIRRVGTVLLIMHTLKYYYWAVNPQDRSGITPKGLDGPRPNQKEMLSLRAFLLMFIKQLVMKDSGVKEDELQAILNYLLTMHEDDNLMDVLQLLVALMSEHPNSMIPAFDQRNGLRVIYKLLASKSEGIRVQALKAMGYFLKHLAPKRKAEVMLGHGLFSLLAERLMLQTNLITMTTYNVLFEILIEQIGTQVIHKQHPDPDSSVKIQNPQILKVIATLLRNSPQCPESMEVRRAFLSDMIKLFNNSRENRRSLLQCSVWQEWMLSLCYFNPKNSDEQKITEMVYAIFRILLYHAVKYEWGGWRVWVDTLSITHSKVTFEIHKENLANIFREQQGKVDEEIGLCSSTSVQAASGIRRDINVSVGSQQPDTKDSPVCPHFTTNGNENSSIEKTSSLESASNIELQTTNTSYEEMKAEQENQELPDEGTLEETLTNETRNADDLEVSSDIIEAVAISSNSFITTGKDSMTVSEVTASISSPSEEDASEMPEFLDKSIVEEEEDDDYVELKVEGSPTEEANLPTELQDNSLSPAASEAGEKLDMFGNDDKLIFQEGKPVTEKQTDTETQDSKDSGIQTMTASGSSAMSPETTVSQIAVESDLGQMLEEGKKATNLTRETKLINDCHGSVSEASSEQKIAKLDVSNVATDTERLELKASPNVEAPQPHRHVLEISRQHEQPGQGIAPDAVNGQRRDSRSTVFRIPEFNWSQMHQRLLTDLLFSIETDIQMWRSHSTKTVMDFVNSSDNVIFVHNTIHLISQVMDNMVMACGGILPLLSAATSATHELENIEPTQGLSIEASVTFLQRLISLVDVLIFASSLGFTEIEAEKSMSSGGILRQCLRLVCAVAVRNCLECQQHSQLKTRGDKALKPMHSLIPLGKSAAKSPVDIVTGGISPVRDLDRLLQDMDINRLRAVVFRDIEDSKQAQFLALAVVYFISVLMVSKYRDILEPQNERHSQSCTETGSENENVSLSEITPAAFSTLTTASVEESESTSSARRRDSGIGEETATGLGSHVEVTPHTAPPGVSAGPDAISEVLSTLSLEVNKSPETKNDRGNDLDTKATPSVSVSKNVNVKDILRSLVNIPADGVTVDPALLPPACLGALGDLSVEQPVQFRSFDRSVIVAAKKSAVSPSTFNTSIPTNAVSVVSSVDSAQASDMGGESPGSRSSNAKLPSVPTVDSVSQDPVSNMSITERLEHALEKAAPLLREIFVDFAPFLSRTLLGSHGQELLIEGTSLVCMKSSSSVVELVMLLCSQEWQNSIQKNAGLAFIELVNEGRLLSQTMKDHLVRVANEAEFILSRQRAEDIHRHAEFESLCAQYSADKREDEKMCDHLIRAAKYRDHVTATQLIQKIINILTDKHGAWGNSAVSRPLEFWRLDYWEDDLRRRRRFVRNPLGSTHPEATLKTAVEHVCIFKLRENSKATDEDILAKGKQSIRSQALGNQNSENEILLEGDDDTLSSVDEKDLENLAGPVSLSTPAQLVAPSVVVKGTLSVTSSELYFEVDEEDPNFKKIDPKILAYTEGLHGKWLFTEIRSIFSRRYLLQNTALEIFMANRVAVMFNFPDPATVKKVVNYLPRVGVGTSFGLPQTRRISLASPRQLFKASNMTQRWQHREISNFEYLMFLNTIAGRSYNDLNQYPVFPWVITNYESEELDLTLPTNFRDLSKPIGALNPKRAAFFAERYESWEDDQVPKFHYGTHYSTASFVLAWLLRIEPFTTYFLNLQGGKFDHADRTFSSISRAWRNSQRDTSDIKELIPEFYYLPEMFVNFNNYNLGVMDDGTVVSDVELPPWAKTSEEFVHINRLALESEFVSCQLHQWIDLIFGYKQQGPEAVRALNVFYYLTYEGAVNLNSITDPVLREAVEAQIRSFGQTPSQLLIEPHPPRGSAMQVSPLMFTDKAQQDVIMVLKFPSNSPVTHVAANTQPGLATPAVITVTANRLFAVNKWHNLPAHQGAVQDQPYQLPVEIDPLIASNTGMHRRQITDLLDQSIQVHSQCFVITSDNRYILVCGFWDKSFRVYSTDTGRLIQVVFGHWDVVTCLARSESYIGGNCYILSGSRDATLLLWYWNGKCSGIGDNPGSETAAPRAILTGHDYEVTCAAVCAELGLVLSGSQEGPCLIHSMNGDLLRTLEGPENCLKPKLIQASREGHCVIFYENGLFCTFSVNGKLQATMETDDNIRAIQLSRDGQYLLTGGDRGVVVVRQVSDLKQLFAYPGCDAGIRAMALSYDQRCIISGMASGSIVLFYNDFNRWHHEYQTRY
row,Structure (SMILES),IC50 [nM]
1,"COc1ccc(-c2ccnc(N3CCNCC3)n2)cc1OC [Compound 31, 4-(3,4-dimethoxy-phenyl)-2-piperazin-1-yl-pyrimidine]",> 2000
2,"NCC1CCN(c2cccc(-c3cnc4ccccc4c3)c2)CC1 [Compound 15, (1-(3-(quinolin-3-yl)phenyl)piperidin-4-yl)methylamine]",> 2000
3,"c1ccc2ncc(-c3ccnc(N4CCCNCC4)n3)cc2c1 [Compound 24, 3-(2-(1,4-diaza-1-yl)pyrimidin-4-yl)quinoline]",> 2000
4,"COc1cc(-c2ccnc(N3CCNCC3)n2)cnc1OC [Compound 30, 4-(5,6-dimethoxy-pyridin-3-yl)-2-piperazin-1-yl-pyrimidine]",> 2000
5,"Cn1ncc2c(-c3cnc4ccccc4c3)nc(N3CCNCC3)nc21 [Compound 52, 3-(1-methyl-6-(piperazin-1-yl)-1H-pyrazolo[3,4-d]pyrimidin-4-yl)quinoline]",1000 to 2000
6,"C[C@@H]1CN(c2nccc(-c3cnc4ccccc4c3)n2)C[C@H](C)N1 [Compound 22, 3-(2-((3S,5R)-3,5-dimethylpiperazin-1-yl)pyrimidin-4-yl)quinoline]",> 2000
7,"NCC1CCN(c2nccc(-c3cc4ccccc4nc3N3CCC(CN)CC3)n2)CC1 [Compound 8, (1-(3-(2-(4-(aminomethyl)piperidin-1-yl)pyrimidin-4-yl)quinolin-2-yl)piperidin-4-yl)methylamine]",1000 to 2000
8,"Nc1cnc(N2CCNCC2)nc1-c1cnc2ccccc2c1 [Compound 38, 3-(5-amino-2-(piperazin-1-yl)pyrimidin-4-yl)quinoline]",< 200
9,"c1ccc2ncc(-c3cc(N4CCOCC4)nc(N4CCNCC4)n3)cc2c1 [Compound 49, 4-(2-(piperazin-1-yl)-6-(quinolin-3-yl)pyrimidin-4-yl)morpholine]",200 to 1000
10,"NCC1CCN(c2nccc(-c3cnc4ccc(F)cc4c3)n2)CC1 [Compound 7, (1-(4-(6-fluoroquinolin-3-yl)pyrimidin-2-yl)piperidin-4-yl)methylamine]",200 to 1000
11,"NCCC1CCN(c2nccc(-c3cnc4ccccc4c3)n2)CC1 [Compound 19, 2-(1-(4-(quinolin-3-yl)pyrimidin-2-yl)piperidin-4-yl)ethylamine]",200 to 1000
12,"NCCNc1nccc(-c2cnc3ccccc3c2)n1 [Compound 26, N-(4-(quinolin-3-yl)pyrimidin-2-yl)ethane-1,2-diamine]",< 200
13,"O=CNCC1CCN(c2nccc(-c3cnc4ccccc4c3)n2)CC1 [Compound 2, N-((1-(4-(quinolin-3-yl)pyrimidin-2-yl)piperidin-4-yl)methyl)formamide]",> 2000
14,"NCC1CCN(c2nccc(-c3ccc4ccccc4n3)n2)CC1 [Compound 5, (1-(4-(quinolin-2-yl)pyrimidin-2-yl)piperidin-4-yl)methylamine]",> 2000
15,"FC(F)(F)c1cc(-c2cnc3ccccc3c2)nc(N2CCNCC2)n1 [Compound 40, 3-(2-(piperazin-1-yl)-6-(trifluoromethyl)pyrimidin-4-yl)quinoline]",< 200
16,"c1ccc2ncc(-c3ncnc(N4CCNCC4)n3)cc2c1 [Compound 35, 3-(4-(piperazin-1-yl)-1,3,5-triazin-2-yl)quinoline]",< 200
17,"c1ccc2c(-c3ccnc(N4CCNCC4)n3)coc2c1 [Compound 33, 4-(benzofuran-3-yl)-2-(piperazin-1-yl)pyrimidine]",200 to 1000
18,"N#Cc1cc(-c2cnc3ccccc3c2)nc(N2CCNCC2)n1 [Compound 42, 3-(6-cyano-2-(piperazin-1-yl)pyrimidin-4-yl)quinoline]",< 200
19,"c1ccc2ncc(-c3nc(N4CCNCC4)nc4ccccc34)cc2c1 [Compound 36, 2-(piperazin-1-yl)-4-(quinolin-3-yl)quinazoline]",200 to 1000
20,"COc1cc(-c2ccnc(N3CCNCC3)n2)cnc1O [Compound 34, 3-methoxy-5-(2-piperazin-1-yl-pyrimidin-4-yl)-pyridin-2-ol]",> 2000
21,"COc1ccc(-c2cc(-c3cnc4ccccc4c3)nc(N3CCNCC3)n2)cc1 [Compound 51, 3-(6-(4-methoxyphenyl)-2-(piperazin-1-yl)pyrimidin-4-yl)quinoline]",< 200
22,"c1ccc2ncc(-c3nc(N4CCNCC4)nc4c3CCCC4)cc2c1 [Compound 37, 2-(piperazin-1-yl)-4-(quinolin-3-yl)-5,6,7,8-tetrahydroquinazoline]",200 to 1000
23,"NCC1CCN(c2nccc(-c3ccc4ncccc4c3)n2)CC1 [Compound 3, (1-(4-(quinolin-6-yl)pyrimidin-2-yl)piperidin-4-yl)methylamine]",> 2000
24,"c1cc(-c2ccc3c(c2)OCCO3)nc(N2CCNCC2)n1 [Compound 29, 4-(2,3-dihydrobenzo[b][1,4]dioxin-6-yl)-2-(piperazin-1-yl)pyrimidine]",> 2000

row,Structure (SMILES),IC50 [nM]
1,"c1cc(-c2cnc3c(c2)OCCO3)nc(N2CCNCC2)n1 [Compound 28, 7-(2-(piperazin-1-yl)pyrimidin-4-yl)-2,3-dihydro-[1,4]dioxy[2,3-b]pyridine]",> 2000
2,"NC1CCN(c2nccc(-c3cnc4ccccc4c3)n2)CC1 [Compound 17, 1-(4-(quinolin-3-yl)pyrimidin-2-yl)piperidine-4-amine]",200 to 1000
3,"COc1nc2ccccc2cc1-c1ccnc(N2CCC(CN)CC2)n1 [Compound 9, (1-(4-(2-methoxyquinolin-3-yl)pyrimidin-2-yl)piperidin-4-yl)methylamine]",< 200
4,"NCC1CCN(c2cccc(-c3cnc4ccccc4c3)n2)CC1 [Compound 14, (1-(6-(quinolin-3-yl)pyridin-2-yl)piperidin-4-yl)methylamine]",> 2000
5,"c1ccc2cc(-c3ccnc(N4CCNCC4)n3)ccc2c1 [Comparing compound 1, reference compound]",> 2000
6,"NCC1CCN(c2nccc(-c3cc(=O)c4ccccc4o3)n2)CC1 [Compound 13, 2-(2-(4-(aminomethyl)piperidin-1-yl)pyrimidin-4-yl)-4hydro-benzopyran-4-one]",> 2000
7,"COc1cnc(N2CCNCC2)nc1-c1cnc2ccccc2c1 [Compound 43, 3-(5-methoxy-2-(piperazin-1-yl)pyrimidin-4-yl)quinoline]",< 200
8,"NCC1CCN(c2nccc(-c3cc4ccccc4nc3O)n2)CC1 [Compound 10, 3-(2-(4-(aminomethyl)piperidin-1-yl)pyrimidin-4-yl)quinolin-2-ol]",< 200
9,"Nc1cc(-c2cnc3ccccc3c2)nc(N2CCNCC2)n1 [Compound 47, 2-(piperazin-1-yl)-6-(quinolin-3-yl)pyrimidin-4-amine]",< 200
10,"Fc1cnc(N2CCNCC2)nc1-c1cnc2ccccc2c1 [Compound 46, 3-(5-fluoro-2-(piperazin-1-yl)pyrimidin-4-yl)quinoline]",< 200
11,"[2H]c1nc2ccccc2cc1-c1ccnc(N2CCC(CN)CC2)n1 [Compound 11, (1-(4-(quinolin-3-yl-2-d)pyrimidin-2-yl)piperidin-4-yl)methylamine]",< 200
12,"NCC1CCN(c2nccc(-c3cc4ccccc4nc3N)n2)CC1 [Compound 16, 3-(2-(4-(aminomethyl)piperidin-1-yl)pyrimidin-4-yl)quinolin-2-amine]",> 2000
13,"CN1CCN(c2nccc(-c3cnc4ccccc4c3)n2)CC1 [Compound 23, 3-(2-(4-methylpiperazin-1-yl)pyrimidin-4-yl)quinoline]",> 2000
14,"O=CNCC1CCN(c2nccc(-c3ccc4ncccc4c3)n2)CC1 [Compound 4, N-((1-(4-(quinolin-6-yl)pyrimidin-2-yl)piperidin-4-yl)methyl)formamide]",> 2000
15,"NCC1CCN(c2nccc(-c3cnc4ccccc4c3)n2)CC1 [Compound 1, (1-(4-(quinolin-3-yl)pyrimidin-2-yl)piperidin-4-yl)methylamine]",< 200
16,"OCCC1CCN(c2nccc(-c3cnc4ccccc4c3)n2)CC1 [Compound 21, (1-(4-(quinolin-3-yl)pyrimidin-2-yl)piperidin-4-yl)ethanol]",> 2000
17,"c1ccc2ncc(-c3nc(N4CCNCC4)ncc3C3CC3)cc2c1 [Compound 50, 3-(5-cyclopropyl-2-(piperazin-1-yl)pyrimidin-4-yl)quinoline]",< 200
18,"NCCCNc1nccc(-c2cnc3ccccc3c2)n1 [Compound 27, N-(4-(quinolin-3-yl)pyrimidin-2-yl)propane-1,3-diamine]",1000 to 2000
19,"OCC1CCN(c2nccc(-c3cnc4ccccc4c3)n2)CC1 [Compound 20, (1-(4-(quinolin-3-yl)pyrimidin-2-yl)piperidin-4-yl)methanol]",> 2000
20,"c1ccc2c(-c3ccnc(N4CCNCC4)n3)c[nH]c2c1 [Compound 32, 3-(2-(piperazin-1-yl)pyrimidin-4-yl)-1H-indole]",200 to 1000
21,"COc1cc(-c2cnc3ccccc3c2)nc(N2CCNCC2)n1 [Compound 39, 3-(6-methoxy-2-(piperazin-1-yl)pyrimidin-4-yl)quinoline]",< 200
22,"NCC1CCN(c2cc(-c3cnc4ccccc4c3)ccn2)CC1 [Compound 12, (1-(4-(quinolin-3-yl)pyridin-2-yl)piperidin-4-yl)methylamine]",> 2000
23,"Cc1c(-c2cnc3ccccc3c2)ncnc1N1CCNCC1 [Compound 53, 3-(5-methyl-6-(piperazin-1-yl)pyrimidin-4-yl)quinoline]",< 200
24,"Cn1cnc2c(-c3cnc4ccccc4c3)nc(N3CCNCC3)nc21 [Compound 45, 3-(9-methyl-2-(piperazin-1-yl)-9H-purin-6-yl)quinoline]",200 to 1000
